Test results published in patent US11718813B2, “2-in-1 sanitizing and rinse aid compositions employing amine based surfactants in machine warewashing” (ECOLAB USA INC., priority 2020, dated 2023).

Key:
E. coli = test: AOAC Official Method 960.09 Germicidal and Detergent Sanitizing Action of Disinfectants; format: cell-based
From the text: (§1) As used herein, the term “sanitizer” refers to an agent that reduces the number of bacterial contaminants to safe levels as judged by public health requirements. […] These reductions can be evaluated using a procedure set out in Germicidal and Detergent Sanitizing Action of Disinfectants, Official Methods of Analysis of the Association of Official Analytical Chemists, paragraph 960.09 and applicable sections, 15th Edition, 1990 (EPA Guideline 91-2). According to this reference a sanitizer should provide a 99.999% reduction (5-log order reduction) within 30 seconds at room temperature, 25±2° C., against several test organisms. […] Differentiation of antimicrobial “-cidal” or “-static” activity, the definitions which describe the degree of efficacy, and the official laboratory protocols for measuring this efficacy are considerations for understanding the relevance of antimicrobial agents and compositions. Antimicrobial compositions can affect two kinds of microbial cell damage. The first is a lethal, irreversible action resulting in complete microbial cell destruction or incapacitation. The second type of cell damage is reversible, such that if the organism is rendered free of the agent, it can again multiply. The former is termed microbiocidal and the later, microbiostatic. A sanitizer and a disinfectant are, by definition, agents which provide antimicrobial or microbiocidal activity.
(§2) In order to determine the efficacy of the amine-based surfactants in various environments as determined by different pH values, the surfactants were tested for antimicrobial efficacy on E. coli and Staphylococcus aureus.

Staphylococcus aureus = test: as above; format: cell-based; conditions: pH 5, about 12.5 to about 400 ppm tested, 5-log reached only at the highest concentration tested
From the text: as §1, §2

[1] = Surface tension / critical micelle concentration on a tensiometer; format: physicochemical; conditions: 0.001 to 1 wt % in DI water, FIG. 1
Experimental: All samples were run on a tensiometer with the concentration of the amine surfactants ranging from 0.001 to 1 wt % in up to 50 mL DI water.

Glewwe foam test = format: physicochemical; conditions: foam height; 120 F; pH 8.5
Experimental: The ability of a defoaming agent to control the foaming profile of the surfactant was also tested.
The foam height never surpassed the maximum height of 3 inches allowed by the Glewwe test for a passing test and generally had no foam or a low froth present. Even at a 3:1 ratio of surfactant to defoamer, the fatty alcohol alkoxylate was sufficient to keep the foam low for machine ware washing. At lower ratios, such as 2:1 or 1:1 surfactant to defoamer, the level of foam was even better maintained at a low to nonexistent amount.

- surface tension ([1]; pH 5): about 35 mN/m
- surface tension ([1]; pH 7): about 35 mN/m
- surface tension ([1]; pH 9): about 32 mN/m
- Surfactant Foam Profile 0 min (Glewwe foam test): 9
- Surfactant Foam Profile 15 sec (Glewwe foam test): 9
- Surfactant Foam Profile 1 min (Glewwe foam test): 8
SMILES: CCCCCCCCCCCCN(CCCN)CCCN [bis(3-aminopropyl)dodecylamine]
- log reduction (E. coli; pH 5, about 12.5 to about 400 ppm tested, 5-log reached only at the highest concentration tested): < 5 log
- concentration to achieve a 5-log reduction (E. coli; pH 7): 50 ppm
- log reduction (Staphylococcus aureus): < 5 log
